Assay results as given in patent US20190388406A1, “METHODS OF PREVENTION AND TREATMENT OF THROMBOSIS” (Portola Pharmaceuticals, Inc., priority 2018, published 2019).

Columns and labels:
[1] = system: critically ill patients admitted to the intensive care unit (ICU); test: Occurrence of VTE in critically ill (ICU) patients, post hoc analysis of randomized trial; format: in vivo, human
Text: (§1) A multi-center, double-blind, randomized controlled trial enrolled 7,513 patients hospitalized for an acute medical illness with the following eligibility criteria: (1) hospitalization for acute medical illness, including heart failure, respiratory failure, infection, ischemic stroke, or rheumatic disorder; (2) age≥75 years, age 60 to 74 years with D-dimer≥2×the upper limit of normal (ULN), or age 40 to 59 years with D-dimer≥2×ULN and history of VTE or cancer; (3) anticipated severe immobilization for ≥24 hours followed by moderate or severe immobilization for 3 or more days; and (4) anticipated hospitalization for 3 or more days. Patients were randomly allocated in a 1:1 ratio to extended-duration betrixaban (35 to 42 days) or standard-duration enoxaparin (10±4 days).
(§2) The present study is a post hoc analysis of the effect of betrixaban in critically ill patients admitted to the intensive care unit (ICU) during the index hospitalization and received extended-duration betrixaban. The study population included in the present analysis was subjects admitted to the ICU during the index hospitalization event.
(§3) The primary efficacy endpoint was the occurrence of VTE, defined as a composite of asymptomatic proximal DVT, symptomatic DVT, non-fatal pulmonary embolism (PE), or VTE-related mortality. Safety endpoints were the occurrence of major bleeding and clinically relevant non-major bleeding, defined according to the International Society on Thrombosis and Haemostasis (ISTH) criteria. (Schulman S, Kearon C, Subcommittee on Control of Anticoagulation of the S, Standardization Committee of the International Society on T, Haemostasis. Definition of major bleeding in clinical investigations of antihemostatic medicinal products in non-surgical patients. J Thromb Haemost. 2005; 3:692-694; and Kaatz S, Ahmad D, Spyropoulos AC, Schulman S, Subcommittee on Control of A. Definition of clinically relevant non-major bleeding in studies of anticoagulants in atrial fibrillation and venous thromboembolic disease in non-surgical patients: communication from the SSC of the ISTH. J Thromb Haemost. 2015; 13:2119-2126.) All events were adjudicated by an independent clinical events committee blinded to thromboprophylaxis allocation.
(§4) Baseline characteristics of study participants were compared between treatment arms using the chi-squared test for categorical variables and one-way analysis of variance (ANOVA) for continuous variables, respectively. We analyzed efficacy using a modified intention-to-treat (mITT) population, which included subjects who received at least one dose of study medication and had data on one or more of the efficacy components. The bleeding risk of thromboprophylaxis was analyzed with the actual regimen received in the safety population, which included all randomized patients who received at least one dose of study medication. […] Absolute risk difference and relative risk of betrixaban vs. enoxaparin group were calculated and compared using the chi-squared test. The Breslow-Day test of homogeneity was performed to assess the effect modification by ICU admission on the thromboprophylaxis. All analyses were performed using two-sided tests at a significance level of 0.05 with SAS software version 9.4 (SAS Institute, Inc., North Carolina, United States).

[2] = system: critically ill patients admitted to the intensive care unit (ICU); test: Occurrence of major bleeding (ISTH) in critically ill (ICU) patients; format: in vivo
Text: as §1, §2, §3, §4

[3] = system: critically ill patients admitted to the intensive care unit (ICU); test: Occurrence of major or clinically relevant non-major bleeding (ISTH) in critically ill (ICU) patients; format: in vivo
Text: as §1, §2, §3, §4

[4] = system: non-critically ill patients; test: Occurrence of VTE in non-critically ill patients; format: in vivo, human
Text: as §1, with “Patients were randomly allocated in a 1:1 ratio to extended-duration betrixaban (35 to 42 days) or standard-duration enoxaparin (10±4 days).” left out
as §4, with “The Breslow-Day test of homogeneity was performed to assess the effect modification by ICU admission on the thromboprophylaxis. All analyses were performed using two-sided tests at a significance level of 0.05 with SAS software version 9.4 (SAS Institute, Inc., North Carolina, United States).” left out

[5] = system: non-critically ill patients; test: Occurrence of major bleeding in non-critically ill patients; format: in vivo
Text: as §1, with “Patients were randomly allocated in a 1:1 ratio to extended-duration betrixaban (35 to 42 days) or standard-duration enoxaparin (10±4 days).” left out
as §4, with “The Breslow-Day test of homogeneity was performed to assess the effect modification by ICU admission on the thromboprophylaxis. All analyses were performed using two-sided tests at a significance level of 0.05 with SAS software version 9.4 (SAS Institute, Inc., North Carolina, United States).” left out

[6] = Exposure of betrixaban on co-administration with a Pgp inhibitor; format: in vivo; conditions: concomitant Pgp inhibitor
[7] = full-dose stratum (betrixaban 80 mg daily vs. enoxaparin 40 mg daily), end of study through 77 days
[8] = full-dose stratum (betrixaban 80 mg daily vs. enoxaparin 40 mg daily), end of study through 77 days, listed as betrixaban
[9] = full-dose stratum (betrixaban 80 mg daily vs. enoxaparin 40 mg daily), through 42 days
[10] = full-dose stratum, through 42 days
[11] = full-dose stratum, through 77 days
[12] = mITT population, end of extended thromboprophylaxis through 42 days
[13] = mITT population, end of study through 77 days
[14] = mITT population, through 42 days
[15] = mITT population, through 77 days
[16] = full-dose stratum (betrixaban 80 mg daily vs. enoxaparin 40 mg daily), through 7 days after discontinuation
[17] = full-dose stratum (betrixaban 80 mg daily vs. enoxaparin 40 mg daily), through 7 days after discontinuation, listed as betrixaban
[18] = full-dose stratum, through 7 days after discontinuation
[19] = safety population, end of study through 77 days
[20] = safety population, end of study through 77 days, listed as betrixaban
[21] = safety population, through 7 days after discontinuation
[22] = safety population, through 7 days after discontinuation of study medication
[23] = safety population, through 7 days after discontinuation of study medication, listed as betrixaban
[24] = safety population, through 77 days

COc1ccc(NC(=O)c2ccc(C(=N)N(C)C)cc2)c(C(=O)Nc2ccc(Cl)cn2)c1 [Betrixaban, N-(5-chloropyridin-2-yl)-2-(4-(N,N-dimethylcarbamimidoyl)benzamido)-5-methoxybenzamide]
reduction of the risk of VTE compared with enoxaparin ([1]; critically ill patients, end of extended thromboprophylaxis through 42 days): 46%
relative risk reduction of VTE compared with enoxaparin ([1]; critically ill patients, end of study through 77 days): 52%
risk reduction in the VTE components (asymptomatic proximal DVT, symptomatic DVT, non-fatal PE, VTE-related death) ([1]; critically ill patients, vs. enoxaparin): did not reach statistical difference
VTE events / patients (n/N) [1, 7]: 9/214
risk of VTE (rate) [1, 7]: (4.21%)
risk of VTE (rate) [1, 8]: 4.21%
VTE events / patients (n/N) [1, 9]: 9/271
risk of VTE (rate) [1, 9]: (3.32%)
risk of VTE (rate) ([1]; full-dose stratum (betrixaban 80 mg daily vs. enoxaparin 40 mg daily), through 42 days, listed as betrixaban): 3.32%
VTE ARD (absolute risk difference) betrixaban vs. enoxaparin [1, 10]: −5.01%
VTE NNT or NNH [1, 10]: 20
VTE RR (relative risk) betrixaban vs. enoxaparin [1, 10]: 0.40
VTE ARD (absolute risk difference) betrixaban vs. enoxaparin [1, 11]: −7.20%
VTE NNT or NNH [1, 11]: 14
VTE RR (relative risk) betrixaban vs. enoxaparin [1, 11]: 0.37
VTE events / patients (n/N) [1, 12]: 15/351
risk of VTE (rate) [1, 12]: (4.27%)
risk of VTE (rate) ([1]; mITT population, end of extended thromboprophylaxis through 42 days, listed as betrixaban): 4.27%
VTE events / patients (n/N) [1, 13]: 15/286
risk of VTE (rate) [1, 13]: (5.24%)
risk of VTE (rate) ([1]; mITT population, end of study through 77 days, listed as betrixaban): 5.24%
VTE ARD (absolute risk difference) betrixaban vs. enoxaparin [1, 14]: −3.68%
VTE NNT or NNH [1, 14]: 28
VTE RR (relative risk) betrixaban vs. enoxaparin [1, 14]: 0.54
VTE ARD (absolute risk difference) betrixaban vs. enoxaparin [1, 15]: −5.63%
VTE NNT or NNH [1, 15]: 18
VTE RR (relative risk) betrixaban vs. enoxaparin [1, 15]: 0.48
major bleeding events / patients (n/N) [2, 7]: 1/271
risk of major bleeding (rate) [2, 7]: (0.37%)
risk of major bleeding (rate) [2, 8]: 0.37%
major bleeding events / patients (n/N) [2, 16]: 0/271
risk of major bleeding (rate) [2, 16]: (0.00%)
risk of major bleeding (rate) [2, 17]: 0.00%
major bleeding ARD betrixaban vs. enoxaparin [2, 18]: −3.26%
major bleeding NNT or NNH [2, 18]: 31
major bleeding ARD betrixaban vs. enoxaparin [2, 11]: −3.25%
major bleeding NNT or NNH [2, 11]: 31
major bleeding RR betrixaban vs. enoxaparin [2, 11]: 0.10
major bleeding events / patients (n/N) [2, 19]: 5/351
risk of major bleeding (rate) [2, 19]: (1.42%)
risk of major bleeding (rate) [2, 20]: 1.42%
major bleeding ARD betrixaban vs. enoxaparin [2, 21]: −1.99%
major bleeding RR betrixaban vs. enoxaparin [2, 21]: 0.36
major bleeding events / patients (n/N) [2, 22]: 4/351
risk of major bleeding (rate) [2, 22]: (1.14%)
risk of major bleeding (rate) [2, 23]: 1.14%
major bleeding ARD betrixaban vs. enoxaparin [2, 24]: −1.98%
major bleeding RR betrixaban vs. enoxaparin [2, 24]: 0.42
major or clinically relevant non-major bleeding events / patients (n/N) [3, 7]: 11/271
risk of major or clinically relevant non-major bleeding (rate) [3, 7]: (4.06%)
risk of major or clinically relevant non-major bleeding (rate) [3, 8]: 4.06%
major or clinically relevant non-major bleeding events / patients (n/N) [3, 16]: 9/271
risk of major or clinically relevant non-major bleeding (rate) [3, 16]: (3.32%)
risk of major or clinically relevant non-major bleeding (rate) [3, 17]: 3.32%
major or clinically relevant non-major bleeding ARD betrixaban vs. enoxaparin [3, 18]: −0.30%
major or clinically relevant non-major bleeding RR betrixaban vs. enoxaparin [3, 18]: 0.92
major or clinically relevant non-major bleeding ARD betrixaban vs. enoxaparin [3, 11]: 0.07%
major or clinically relevant non-major bleeding RR betrixaban vs. enoxaparin [3, 11]: 1.02
major or clinically relevant non-major bleeding events / patients (n/N) [3, 19]: 15/351
risk of major or clinically relevant non-major bleeding (rate) [3, 19]: (4.27%)
risk of major or clinically relevant non-major bleeding (rate) [3, 20]: 4.27%
major or clinically relevant non-major bleeding ARD betrixaban vs. enoxaparin [3, 21]: 0.29%
major or clinically relevant non-major bleeding RR betrixaban vs. enoxaparin [3, 21]: 1.09
major or clinically relevant non-major bleeding events / patients (n/N) [3, 22]: 13/351
risk of major or clinically relevant non-major bleeding (rate) [3, 22]: (3.70%)
risk of major or clinically relevant non-major bleeding (rate) [3, 23]: 3.70%
major or clinically relevant non-major bleeding ARD betrixaban vs. enoxaparin [3, 24]: 0.58%
major or clinically relevant non-major bleeding RR betrixaban vs. enoxaparin [3, 24]: 1.16
reduction of VTE risk ([4]; end of extended thromboprophylaxis): 23%
reduction of VTE risk ([4]; end of study): 24%
rates of major bleeding, betrixaban vs. enoxaparin [5]: no difference
effect of Pgp inhibitor on exposure of betrixaban [6]: increases the exposure

Enoxaparin [reference compound]
VTE events / patients (n/N) [1, 7]: 26/228
risk of VTE (rate) [1, 7]: (11.40%)
risk of VTE (rate) ([1]; full-dose stratum (betrixaban 80 mg daily vs. enoxaparin 40 mg daily), end of study through 77 days, listed as enoxaparin): 11.40%
VTE events / patients (n/N) [1, 9]: 23/276
risk of VTE (rate) [1, 9]: (8.33%)
risk of VTE (rate) ([1]; full-dose stratum (betrixaban 80 mg daily vs. enoxaparin 40 mg daily), through 42 days, listed as enoxaparin): 8.33%
VTE events / patients (n/N) [1, 12]: 28/352
risk of VTE (rate) [1, 12]: (7.95%)
risk of VTE (rate) ([1]; mITT population, end of extended thromboprophylaxis through 42 days, listed as enoxaparin): 7.95%
VTE events / patients (n/N) [1, 13]: 31/285
risk of VTE (rate) [1, 13]: (10.88%)
risk of VTE (rate) ([1]; mITT population, end of study through 77 days, listed as enoxaparin): 10.88%
